Patent US20130157954A1, “METHODS FOR TREATMENT OR PROPHYLAXIS OF KIDNEY OR LIVER DYSFUNCTION” (NPS PHARMACEUTICALS, INC., priority 2010, published 2013)

Test: Example 2: liver biomarkers (albumin, gamma glutamyl transferase, total bilirubin, ALT, AST, ALP) in short bowel syndrome patients, every four weeks for 24 weeks; also sorted by >10% change from baseline
Type: in vivo, Human
Conditions: 0.05 mg/kg/d; for Alkaline Phosphatase: subjects Within 10% of Baseline / Alkaline Phosphatase: subjects with >10% decrease from Baseline / Alkaline Phosphatase: subjects with >10% increase from Baseline / Bilirubin: subjects Within 10% of Baseline / Bilirubin: subjects with >10% decrease from Baseline / Bilirubin: subjects with >10% increase from Baseline / ALT: subjects Within 10% of Baseline / ALT: subjects with >10% decrease from Baseline / ALT: subjects with >10% increase from Baseline / AST: subjects Within 10% of Baseline / AST: subjects with >10% decrease from Baseline / AST: subjects with >10% increase from Baseline / Albumin: subjects Within 10% of Baseline / Albumin: subjects with >10% decrease from Baseline / Albumin: subjects with >10% increase from Baseline: m = 38
Description: To further confirm the results of Example 1, a further study was conducted involving more individuals and additional diagnostic biomarkers. Human patients with short bowel syndrome were divided into two groups: a control group (43 total individuals) to receive placebo, and an experimental group (42 total individuals) to receive teduglutide at 0.05 mg/kg/day throughout the study. Patients were treated by subcutaneous injection of placebo or the appropriate dose of teduglutide. Known biomarkers of liver function were monitored every four weeks, for 24 weeks. The liver biomarkers tested included albumin, gamma glutamyl transferase, total bilirubin, ALT and AST and ALP. Before administration of placebo or teduglutide, diagnostic biomarker levels were tested to establish a baseline for each individual.
To determine the effect of GLP-2 on the levels of the diagnostic biomarkers, the average level of each biomarker was measured for the placebo and teduglutide treated groups for each visit. Furthermore, the average change from baseline was calculated using the established baseline values. For FIGS. 17-28, p-values were calculated using the t-test.
P values are provided, which were calculated for each distribution of biomarker changes for each week using the chi-squared test.

With `CC[C@H](C)[C@H](NC(=O)[C@H](Cc1ccccc1)NC(=O)[C@H](CC(=O)O)NC(=O)[C@H](CCCNC(=N)N)NC(=O)[C@H](C)NC(=O)[C@H](C)NC(=O)[C@H](CC(C)C)NC(=O)[C@H](CC(N)=O)NC(=O)[C@H](CC(=O)O)NC(=O)[C@H](CC(C)C)NC(=O)[C@@H](NC(=O)[C@@H](NC(=O)[C@H](CC(N)=O)NC(=O)[C@H](CCSC)NC(=O)[C@H](CCC(=O)O)NC(=O)[C@H](CC(=O)O)NC(=O)[C@H](CO)NC(=O)[C@H](Cc1ccccc1)NC(=O)[C@H](CO)NC(=O)CNC(=O)[C@H](CC(=O)O)NC(=O)CNC(=O)[C@@H](N)Cc1c[nH]cn1)[C@@H](C)O)[C@@H](C)CC)C(=O)N[C@@H](CC(N)=O)C(=O)N[C@@H](Cc1c[nH]c2ccccc12)C(=O)N[C@@H](CC(C)C)C(=O)N[C@H](C(=O)N[C@@H](CCC(N)=O)C(=O)N[C@H](C(=O)N[C@@H](CCCCN)C(=O)N[C@H](C(=O)N[C@H](C(=O)N[C@@H](CC(=O)O)C(=O)O)[C@@H](C)O)[C@@H](C)CC)[C@@H](C)O)[C@@H](C)CC` [teduglutide] the “Alkaline Phosphatase: subjects Within 10% of Baseline” value (Week 16) was 7 (18.4%) n (%), the “Alkaline Phosphatase: subjects with >10% decrease from Baseline” value (Week 16) was 23 (60.5%) n (%) and the “Alkaline Phosphatase: subjects with >10% increase from Baseline” value (Week 16) was 8 (21.1%) n (%). For the same compound, the “Bilirubin: subjects Within 10% of Baseline” value (Week 16) was 5 (13.2%) n (%), the “Bilirubin: subjects with >10% decrease from Baseline” value (Week 16) was 24 (63.2%) n (%) and the “Bilirubin: subjects with >10% increase from Baseline” value (Week 16) was 9 (23.7%) n (%). For the same compound, the “ALT Change from Baseline, Max” value (Week 20) was 24 U/L, the “ALT Change from Baseline, Median” value (Week 20) was −6.5 U/L and the “ALT Change from Baseline, Min” value (Week 20) was −55 U/L. The “ALT Observed Value, Max” value (Week 20) was 149 U/L, the “ALT Observed Value, Min” value (Week 20) was 5 U/L and the “AST Change from Baseline, Max” value (Week 20) was 10 U/L. For the same compound, the “AST Change from Baseline, Mean” value (Week 20) was −4.2 U/L, the “AST Change from Baseline, Median” value (Week 20) was −2.5 U/L and the “AST Change from Baseline, Min” value (Week 20) was −38 U/L. For the same compound, the “AST Observed Value, Max” value (Week 20) was 77 U/L, the “AST Observed Value, Min” value (Week 20) was 10 U/L and the “Albumin Change from Baseline, Max” value (Week 20) was 4 g/L. For the same compound, the “Albumin Change from Baseline, Mean” value (Week 20) was -0.6 g/L, the “Albumin Change from Baseline, Median” value (Week 20) was -1 g/L and the “Albumin Change from Baseline, Min” value (Week 20) was -8 g/L. For the same compound, the “Albumin Observed Value, Max” value (Week 20) was 49 g/L, the “Albumin Observed Value, Median” value (Week 20) was 43 g/L and the “Albumin Observed Value, Min” value (Week 20) was 33 g/L. For the same compound, the “Alkaline Phosphatase Change from Baseline, Max” value (Week 20) was 77 U/L, the “Alkaline Phosphatase Change from Baseline, Min” value (Week 20) was −117 U/L and the “Alkaline Phosphatase Observed Value, Max” value (Week 20) was 303 U/L. The “Alkaline Phosphatase Observed Value, Min” value (Week 20) was 54 U/L, the “Bilirubin Change from Baseline, Max” value (Week 20) was 2.8 µmol/L and the “Bilirubin Change from Baseline, Median” value (Week 20) was -1.7 µmol/L. For the same compound, the “Bilirubin Change from Baseline, Min” value (Week 20) was -25.5 µmol/L, the “Bilirubin Observed Value, Max” value (Week 20) was 31.9 µmol/L and the “Bilirubin Observed Value, Min” value (Week 20) was 3.7 µmol/L. For the same compound, the “Gamma Glutamyl Transferase Change from Baseline, Max” value (Week 20) was 57 U/L, the “Gamma Glutamyl Transferase Change from Baseline, Mean” value (Week 20) was −9.6 U/L and the “Gamma Glutamyl Transferase Change from Baseline, Median” value (Week 20) was −8 U/L. The “Gamma Glutamyl Transferase Change from Baseline, Min” value (Week 20) was −146 U/L, the “Gamma Glutamyl Transferase Observed Value, Max” value (Week 20) was 261 U/L and the “Gamma Glutamyl Transferase Observed Value, Min” value (Week 20) was 8 U/L. For the same compound, the “ALT: subjects Within 10% of Baseline” value (Week 20) was 10 (26.3%) n (%), the “ALT: subjects with >10% decrease from Baseline” value (Week 20) was 23 (60.5%) n (%) and the “ALT: subjects with >10% increase from Baseline” value (Week 20) was 5 (13.2%) n (%). For the same compound, the “AST: subjects Within 10% of Baseline” value (Week 20) was 11 (28.9%) n (%), the “AST: subjects with >10% decrease from Baseline” value (Week 20) was 20 (52.6%) n (%) and the “AST: subjects with >10% increase from Baseline” value (Week 20) was 7 (18.4%) n (%). For the same compound, the “Albumin: subjects Within 10% of Baseline” value (Week 20) was 37 (97.4%) n (%), the “Albumin: subjects with >10% decrease from Baseline” value (Week 20) was 1 (2.6%) n (%) and the “Albumin: subjects with >10% increase from Baseline” value (Week 20) was 0 n (%). The “Alkaline Phosphatase: subjects Within 10% of Baseline” value (Week 20) was 12 (31.6%) n (%), the “Alkaline Phosphatase: subjects with >10% decrease from Baseline” value (Week 20) was 23 (60.5%) n (%) and the “Alkaline Phosphatase: subjects with >10% increase from Baseline” value (Week 20) was 3 (7.9%) n (%). For the same compound, the “Bilirubin: subjects Within 10% of Baseline” value (Week 20) was 5 (13.2%) n (%), the “Bilirubin: subjects with >10% decrease from Baseline” value (Week 20) was 25 (65.8%) n (%) and the “Bilirubin: subjects with >10% increase from Baseline” value (Week 20) was 8 (21.1%) n (%). For the same compound, the “ALT Change from Baseline, Max” value (Week 24) was 21 U/L, the “ALT Change from Baseline, Median” value (Week 24) was −7.5 U/L and the “ALT Change from Baseline, Min” value (Week 24) was −60 U/L. For the same compound, the “ALT Observed Value, Max” value (Week 24) was 91 U/L, the “ALT Observed Value, Min” value (Week 24) was 7 U/L and the “AST Change from Baseline, Max” value (Week 24) was 14 U/L. For the same compound, the “AST Change from Baseline, Mean” value (Week 24) was −5.8 U/L, the “AST Change from Baseline, Median” value (Week 24) was −5 U/L and the “AST Change from Baseline, Min” value (Week 24) was −47 U/L. The “AST Observed Value, Max” value (Week 24) was 73 U/L, the “AST Observed Value, Median” value (Week 24) was 23 U/L and the “AST Observed Value, Min” value (Week 24) was 11 U/L. The “Albumin Change from Baseline, Max” value (Week 24) was 3 g/L, the “Albumin Change from Baseline, Mean” value (Week 24) was -0.4 g/L and the “Albumin Change from Baseline, Median” value (Week 24) was 0 g/L. For the same compound, the “Albumin Change from Baseline, Min” value (Week 24) was -8 g/L, the “Albumin Observed Value, Max” value (Week 24) was 48 g/L and the “Albumin Observed Value, Median” value (Week 24) was 42 g/L. The “Albumin Observed Value, Min” value (Week 24) was 33 g/L, the “Alkaline Phosphatase Change from Baseline, Max” value (Week 24) was 33 U/L and the “Alkaline Phosphatase Change from Baseline, Min” value (Week 24) was −122 U/L. For the same compound, the “Alkaline Phosphatase Observed Value, Max” value (Week 24) was 328 U/L, the “Alkaline Phosphatase Observed Value, Median” value (Week 24) was 88 U/L and the “Alkaline Phosphatase Observed Value, Min” value (Week 24) was 49 U/L. The “Bilirubin Change from Baseline, Max” value (Week 24) was 3.3 µmol/L, the “Bilirubin Change from Baseline, Min” value (Week 24) was -26.1 µmol/L and the “Bilirubin Observed Value, Max” value (Week 24) was 31.3 µmol/L. The “Bilirubin Observed Value, Median” value (Week 24) was 6.8 µmol/L, the “Bilirubin Observed Value, Min” value (Week 24) was 2.5 µmol/L and the “Gamma Glutamyl Transferase Change from Baseline, Max” value (Week 24) was 46 U/L. For the same compound, the “Gamma Glutamyl Transferase Change from Baseline, Median” value (Week 24) was −6 U/L, the “Gamma Glutamyl Transferase Change from Baseline, Min” value (Week 24) was −144 U/L and the “Gamma Glutamyl Transferase Observed Value, Max” value (Week 24) was 228 U/L. For the same compound, the “Gamma Glutamyl Transferase Observed Value, Min” value (Week 24) was 7 U/L, the “ALT: subjects Within 10% of Baseline” value (Week 24) was 10 (26.3%) n (%) and the “ALT: subjects with >10% decrease from Baseline” value (Week 24) was 24 (63.2%) n (%). The “ALT: subjects with >10% increase from Baseline” value (Week 24) was 4 (10.5%) n (%), the “AST: subjects Within 10% of Baseline” value (Week 24) was 8 (21.1%) n (%) and the “AST: subjects with >10% decrease from Baseline” value (Week 24) was 24 (63.2%) n (%). The “AST: subjects with >10% increase from Baseline” value (Week 24) was 6 (15.8%) n (%), the “Albumin: subjects Within 10% of Baseline” value (Week 24) was 36 (94.7%) n (%) and the “Albumin: subjects with >10% decrease from Baseline” value (Week 24) was 2 (5.3%) n (%). The “Albumin: subjects with >10% increase from Baseline” value (Week 24) was 0 n (%), the “Alkaline Phosphatase: subjects Within 10% of Baseline” value (Week 24) was 9 (23.7%) n (%) and the “Alkaline Phosphatase: subjects with >10% decrease from Baseline” value (Week 24) was 23 (60.5%) n (%). The “Alkaline Phosphatase: subjects with >10% increase from Baseline” value (Week 24) was 6 (15.8%) n (%), the “Bilirubin: subjects Within 10% of Baseline” value (Week 24) was 6 (15.8%) n (%) and the “Bilirubin: subjects with >10% decrease from Baseline” value (Week 24) was 26 (68.4%) n (%). The “Bilirubin: subjects with >10% increase from Baseline” value (Week 24) was 6 (15.8%) n (%).
